Patent publication US20140221374A1, “RAF KINASE INHIBITORS” (Ruga Corporation, priority 2011, published 2014)

Legend:
V600E-mutated B-RAF = V600E-mutated B-RAF (Homo sapiens, UniProt P15056, V600E); experiment: In vitro assay for inhibition of mutant B-RAF kinase (recombinant V600E-mutated B-RAF, MEK (K97R) substrate); assay type: biochemical; conditions: 10 nM recombinant V600E-mutated B-RAF
Description: The ability of compounds described herein to inhibit RAF kinase activity were determined from biochemical kinase inhibition assays using recombinant RAF proteins as known in the art.
Solutions of varying concentrations of test compounds or vehicle were added to 10 nM recombinant V600E-mutated B-RAF proteins incubated in the presence of different concentrations of ATP and […] (K97R) as substrate, as previously described (Wilhelm, S. M., et al., Cancer Res., 64: 7099-7109, 2004; Mason, C. S., et al.; EMBO J. 18: 2137-2.148, 1999; Marais, R., et al., J. Biol. Chem., 272: 4378-4383, 1997). At least triplicate determinations for each individual test compound concentration were made and data plotted as mean±standard deviation relative to the control vehicle.

[1] = system: A375 cells (V600E activated B-RAF); experiment: In vitro tumor cell growth inhibition, MTT, 72 hours; assay type: cell-based; conditions: Homo sapiens, A-375, 72 hours incubation
Description: Briefly, growth inhibition of cells containing V600E activated B-RAF (A375, Colo205) versus cell lines with wild-type B-RAF (A431) were measured under anchorage-dependent conditions using MTT (3-(4,5-dimethylthiazol-2-yl)-2,5-diphenyltetrazolium bromide), following 72 hours incubation with either compound or vehicle, as previously described (Haass, N. K., et al., Clinical Cancer Res., 14: 230-239, 2008): Cell lines are obtained from the American Type Tissue Culture Collection (Maryland, USA) and cultured in media containing heat-inactivated 10% fetal bovine serum. Cell cultures were also maintained in 10 U/mL, penicillin, 100 μg/mL streptomycin and 2 mM glutamine. At least triplicate determinations for each individual test compound concentration were made and data plotted as mean±standard deviation relative to the control vehicle.

V600E-mutated B-RAF, sequence (P15056 whole entry V600E): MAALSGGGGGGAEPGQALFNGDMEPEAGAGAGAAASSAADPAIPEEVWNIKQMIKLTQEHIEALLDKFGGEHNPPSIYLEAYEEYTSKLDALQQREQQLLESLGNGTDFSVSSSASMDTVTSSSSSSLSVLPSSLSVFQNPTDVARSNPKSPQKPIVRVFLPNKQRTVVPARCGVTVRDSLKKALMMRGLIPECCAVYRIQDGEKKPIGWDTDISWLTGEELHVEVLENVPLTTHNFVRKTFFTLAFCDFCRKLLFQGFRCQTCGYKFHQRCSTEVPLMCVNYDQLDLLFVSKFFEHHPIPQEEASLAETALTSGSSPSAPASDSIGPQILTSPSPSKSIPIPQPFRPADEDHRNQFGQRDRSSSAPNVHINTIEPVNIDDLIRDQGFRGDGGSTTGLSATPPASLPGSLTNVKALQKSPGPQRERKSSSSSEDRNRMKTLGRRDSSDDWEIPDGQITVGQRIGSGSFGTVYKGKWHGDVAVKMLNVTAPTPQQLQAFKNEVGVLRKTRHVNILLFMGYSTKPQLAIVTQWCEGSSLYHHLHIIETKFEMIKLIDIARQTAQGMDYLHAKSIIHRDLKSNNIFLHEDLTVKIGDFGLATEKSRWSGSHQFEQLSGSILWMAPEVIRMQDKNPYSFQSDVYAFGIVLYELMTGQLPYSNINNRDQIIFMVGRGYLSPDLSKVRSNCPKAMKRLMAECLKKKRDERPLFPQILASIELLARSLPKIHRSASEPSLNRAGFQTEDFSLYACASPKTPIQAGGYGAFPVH

| SMILES | IC50 (V600E-mutated B-RAF) [µM] | IC50 [1] [µM] |
| --- | --- | --- |
| Cc1nc(-c2ccncc2)c(-c2cccc(NC(=O)Nc3ccc(Cl)c(C(F)(F)F)c3)c2)s1 [Example 2, 1-(4-chloro-3-(trifluoromethyl)phenyl)-3-(3-(2-methyl-4-(pyridin-4-yl)thiazol-5-yl)phenyl)urea] | ≤ 0.1 |  |
| Cc1nc(-c2ccncc2)c(-c2cccc(NC(=O)Nc3ccc(Cl)cc3)c2)s1 [Example 3, 1-(4-chlorophenyl)-3-(3-(2-methyl-4-(pyridin-4-yl)thiazol-5-yl)phenyl)urea] | ≤ 0.1 | 1 to 10 |
| Cc1nc(-c2ccncc2)c(-c2cccc(NC(=O)Nc3ccc(F)cc3)c2)s1 [Example 4, 1-(4-fluorophenyl)-3-(3-(2-methyl-4-(pyridin-4-yl)thiazol-5-yl)phenyl)urea] | 0.1 to 1 |  |
| Cc1nc(-c2ccncc2)c(-c2cccc(NC(=O)Nc3cc(F)ccc3F)c2)s1 [Example 5, 1-(2,5-difluorophenyl)-3-(3-(2-methyl-4-(pyridin-4-yl)thiazol-5-yl)phenyl)urea] | 0.1 to 1 |  |
| Cc1nc(-c2ccncc2)c(-c2cccc(NC(=O)Nc3c(F)cccc3F)c2)s1 [Example 6, 1-(2,6-difluorophenyl)-3-(3-(2-methyl-4-(pyridin-4-yl)thiazol-5-yl)phenyl)urea] | 0.1 to 1 |  |
| Cc1ccc(NC(=O)Nc2ccc(F)c(-c3sc(C)nc3-c3ccncc3)c2)cc1 [Example 8, 1-(4-fluoro-3-(2-methyl-4-(pyridin-4-yl)thiazol-5-yl)phenyl)-3-p-tolylurea] | ≤ 0.1 |  |
| Cc1nc(-c2ccncc2)c(-c2cccc(NC(=O)Nc3ccc(C(F)(F)F)cc3)c2)s1 [Example 9, 1-(3-(2-methyl-4-(pyridin-4-yl)thiazol-5-yl)phenyl)-3-(4-(trifluoromethyl)phenyl)urea] | ≤ 0.1 | 0.1 to 1 |
| Cc1nc(-c2ccncc2)c(-c2ccc(F)c(NC(=O)Nc3ccc(Cl)c(Cl)c3)c2)s1 [Example 11, 1-(3,4-dichlorophenyl)-3-(2-fluoro-5-(2-methyl-4-(pyridin-4-yl)thiazol-5-yl)phenyl)urea] | ≤ 0.1 |  |
| Cc1nc(-c2ccncc2)c(-c2ccc(F)c(NC(=O)Nc3ccc(Cl)cc3F)c2)s1 [Example 12, 1-(4-chloro-2-fluorophenyl)-3-(2-fluoro-5-(2-methyl-4-(pyridin-4-yl)thiazol-5-yl)phenyl)urea] | ≤ 0.1 |  |
| Cc1nc(-c2ccncc2)c(-c2ccc(F)c(NC(=O)Nc3cccc(Cl)c3)c2)s1 [Example 13, 1-(3-chlorophenyl)-3-(2-fluoro-5-(2-methyl-4-(pyridin-4-yl)thiazol-5-yl)phenyl)urea] | ≤ 0.1 | 1 to 10 |
| Cc1nc(-c2ccncc2)c(-c2ccc(F)c(NC(=O)Nc3ccc(C(F)(F)F)cc3)c2)s1 [Example 14, 1-(2-fluoro-5-(2-methyl-4-(pyridin-4-yl)thiazol-5-yl)phenyl)-3-(4-(trifluoromethyl)phenyl)urea] | ≤ 0.1 | 1 to 10 |
| Cc1nc(-c2ccncc2)c(-c2cccc(NC(=O)Nc3ccc(C(F)(F)F)cc3)c2F)s1 [Example 15, 1-(2-fluoro-3-(2-methyl-4-(pyridin-4-yl)thiazol-5-yl)phenyl)-3-(4-(trifluoromethyl)phenyl)urea] | 0.1 to 1 | 1 to 10 |
| Cc1nc(-c2ccncc2)c(-c2ccc(F)c(NC(=O)Nc3cccc(C(F)(F)F)c3)c2)s1 [Example 16, 1-(2-fluoro-5-(2-methyl-4-(pyridin-4-yl)thiazol-5-yl)phenyl)-3-(3-(trifluoromethyl)phenyl)urea] | ≤ 0.1 | > 10 |
| Cc1nc(-c2ccncc2)c(-c2cccc(NC(=O)Nc3ccc(S(C)(=O)=O)cc3)c2)s1 [Example 17, 1-(3-(2-methyl-4-(pyridin-4-yl)thiazol-5-yl)phenyl)-3-(4-(methylsulfonyl)phenyl)urea] | ≤ 0.1 | > 10 |
| Cc1nc(-c2ccncc2)c(-c2cccc(NC(=O)Nc3ccc(Cl)cc3)c2F)s1 [Example 18, 1-(4-chlorophenyl)-3-(2-fluoro-3-(2-methyl-4-(pyridin-4-yl)thiazol-5-yl)phenyl)urea] | 0.1 to 1 |  |
| Cc1ccc(NC(=S)Nc2cccc(-c3sc(C)nc3-c3ccncc3)c2)cc1 [Example 19, 1-(3-(2-methyl-4-(pyridin-4-yl)thiazol-5-yl)phenyl)-3-p-tolylthiourea] | ≤ 0.1 |  |
| Cc1nc(-c2ccnc(N)c2)c(-c2cccc(NC(=O)Nc3ccc(Cl)cc3)c2F)s1 [Example 23, 1-(3-(4-(2-aminopyridin-4-yl)-2-methylthiazol-5-yl)-2-fluorophenyl)-3-(4-chlorophenyl)urea] | 0.1 to 1 |  |

| SMILES | IC50 (V600E-mutated B-RAF) [µM] | IC50 [1] [µM] |
| --- | --- | --- |
| Cc1ccc(NC(=O)Nc2cccc(-c3sc(C(C)(C)C)nc3-c3ccncc3)c2)cc1 [Example 27, 1-(3-(2-tert-butyl-4-(pyridin-4-yl)thiazol-5-yl)phenyl)-3-p-tolylurea] | 0.1 to 1 |  |
| COCCNc1cc(-c2nc(C(C)(C)C)sc2-c2cccc(NC(=O)Nc3ccc(C)cc3)c2)ccn1 [Example 28, 1-(3-(2-tert-butyl-4-(2-(2-methoxyethylamino)pyridin-4-yl)thiazol-5-yl)phenyl)-3-p-tolylurea] | 1 to 10 |  |
| Cc1ccc(NC(=O)Nc2cccc(-c3sc(C(C)(C)C)nc3-c3ccnc(NCCO)c3)c2)cc1 [Example 29, 1-(3-(2-tert-butyl-4-(2-(2-hydroxyethylamino)pyridin-4-yl)thiazol-5-yl)phenyl)-3-p-tolylurea] | ≤ 0.1 |  |
| Cc1ccc(NC(=O)Nc2cccc(-c3sc(C(C)(C)C)nc3-c3ccnc(NCCN(C)C)c3)c2)cc1 [Example 30, 1-(3-(2-tert-butyl-4-(2-(2-(dimethylamino)ethylamino)pyridin-4-yl)thiazol-5-yl)phenyl)-3-p-tolylurea] | ≤ 0.1 |  |
| Cc1ccc(NC(=O)Nc2cccc(-c3sc(C(C)(C)C)nc3-c3ccnc(NCCN4CCCC4)c3)c2)cc1 [Example 31, 1-(3-(2-tert-butyl-4-(2-(2-(pyrrolidin-1-yl)ethylamino)pyridin-4-yl)thiazol-5-yl)phenyl)-3-p-tolylurea] | ≤ 0.1 |  |
| COC(=O)N[C@@H](C)CNc1cc(-c2nc(C(C)(C)C)sc2-c2cccc(NC(=O)Nc3ccc(C)cc3)c2)ccn1 [Example 32, (S)-methyl 1-(4-(2-tert-butyl-5-(3-(3-p-tolylureido)phenyl)thiazol-4-yl)pyridin-2-ylamino)propan-2-ylcarbamate] | ≤ 0.1 |  |
| O=C(Nc1ccc(Cl)cc1)Nc1cc(-c2sc(NCCN3CCOCC3)nc2-c2ccncc2)ccc1F [Example 36, 1-(4-chlorophenyl)-3-(2-fluoro-5-(2-(2-morpholinoethylamino)-4-(pyridin-4-yl)thiazol-5-yl)phenyl)urea] | ≤ 0.1 |  |
| Nc1nc(-c2ccncc2)c(-c2cccc(NC(=O)Nc3ccc(C(F)(F)F)cc3)c2F)s1 [Example 38, 1-(3-(2-amino-4-(pyridin-4-yl)thiazol-5-yl)-2-fluorophenyl)-3-(4-(trifluoromethyl)phenyl)urea] | 0.1 to 1 |  |
| Nc1nc(-c2ccncc2)c(-c2cccc(NC(=O)Nc3ccc(Cl)cc3)c2F)s1 [Example 39, 1-(3-(2-amino-4-(pyridin-4-yl)thiazol-5-yl)-2-fluorophenyl)-3-(4-chlorophenyl)urea] | 1 to 10 |  |
| Nc1nc(-c2ccncc2)c(-c2ccc(F)c(NC(=O)Nc3ccc(Cl)cc3)c2)s1 [Example 40, 1-(5-(2-amino-4-(pyridin-4-yl)thiazol-5-yl)-2-fluorophenyl)-3-(4-chlorophenyl)urea] | ≤ 0.1 |  |
| Cc1nc(-c2ccncc2)c(-c2cccc(NS(=O)(=O)c3c(F)cccc3F)c2)s1 [Example 42, 2,6-difluoro-N-(3-(2-methyl-4-(pyridin-4-yl)thiazol-5-yl)phenyl)benzenesulfonamide] | 0.1 to 1 |  |
| Cc1nc(-c2ccnc(N)c2)c(-c2cccc(NS(=O)(=O)c3c(F)cccc3F)c2)s1 [Example 43, N-(3-(4-(2-aminopyridin-4-yl)-2-methylthiazol-5-yl)phenyl)-2,6-difluorobenzenesulfonamide] | 1 to 10 |  |
| CC(C)(C)c1nc(-c2ccncc2)c(-c2cccc(NS(=O)(=O)c3c(F)cccc3F)c2)s1 [Example 44, N-(3-(2-tert-butyl-4-(pyridin-4-yl)thiazol-5-yl)phenyl)-2,6-difluorobenzenesulfonamide] | 0.1 to 1 |  |
| Cc1ccc(CC(=O)Nc2cccc(-c3sc(C)nc3-c3ccnc(N)c3)c2)cc1 [Example 45, N-[3-(2-Methyl-4-(2-aminopyridin-4-yl)-thiazol-5-yl)-phenyl]-p-tolylacetamide] | 0.1 to 1 |  |
| Cc1ccc(CC(=O)Nc2cccc(-c3sc(C(C)(C)C)nc3-c3ccncc3)c2)cc1 [Example 46, N-(3-(2-tert-butyl-4-(pyridin-4-yl)thiazol-5-yl)phenyl)-2-p-tolylacetamide] | 1 to 10 |  |
| CCn1cc(-c2cccc(NC(=O)Nc3ccc(S(=O)(=O)N4CCCC4)cc3)c2)c(-c2ccncc2)n1 [Example 58, 1-(3-(1-ethyl-3-(pyridin-4-yl)-1H-pyrazol-4-yl)phenyl)-3-(4-(pyrrolidin-1-ylsulfonyl)phenyl)urea] | > 10 |  |
